Laboratory results published in patent publication US9951064B2, “Azaindazole compounds as inhibitors of T790M containing EGFR mutants” (Genentech, Inc., priority 2013, dated 2018).

Legend:
[1] = tested on: H1975 (EGFR T790M/L858R) cell proliferation; experiment: H1975 proliferation assay (Cell Titer-Glo); format: cell-based; settings: Homo sapiens, NCI-H1975, 72 h, NCI-H1975 cells, 72 hour incubation, read-out: H1975 antiproliferative EC50
Procedure: H1975 Proliferation Assays
All cell culture reagents were purchased from Invitrogen/Gibco. Cells are cultured at 37° C. at 5% CO2 and split as recommended by ATCC.

[2] = target: T1, phosphor-EGFR in H1975(L585R/T790M) mutant EGFR expressing cells (Homo sapiens, UniProt P00533, L858R/T790M); experiment: H1975 pEGFR MSD cellular assay; format: cell-based; settings: NCI-H1975 cells, serum starved, 1 hour compound incubation, pEGFR Tyr1068 MSD; read-out: HI975 pEGFR EC50
T1 construct: host or cells: NCI-H1975
T1 sequence (P00533 25-1210 T790M/L858R): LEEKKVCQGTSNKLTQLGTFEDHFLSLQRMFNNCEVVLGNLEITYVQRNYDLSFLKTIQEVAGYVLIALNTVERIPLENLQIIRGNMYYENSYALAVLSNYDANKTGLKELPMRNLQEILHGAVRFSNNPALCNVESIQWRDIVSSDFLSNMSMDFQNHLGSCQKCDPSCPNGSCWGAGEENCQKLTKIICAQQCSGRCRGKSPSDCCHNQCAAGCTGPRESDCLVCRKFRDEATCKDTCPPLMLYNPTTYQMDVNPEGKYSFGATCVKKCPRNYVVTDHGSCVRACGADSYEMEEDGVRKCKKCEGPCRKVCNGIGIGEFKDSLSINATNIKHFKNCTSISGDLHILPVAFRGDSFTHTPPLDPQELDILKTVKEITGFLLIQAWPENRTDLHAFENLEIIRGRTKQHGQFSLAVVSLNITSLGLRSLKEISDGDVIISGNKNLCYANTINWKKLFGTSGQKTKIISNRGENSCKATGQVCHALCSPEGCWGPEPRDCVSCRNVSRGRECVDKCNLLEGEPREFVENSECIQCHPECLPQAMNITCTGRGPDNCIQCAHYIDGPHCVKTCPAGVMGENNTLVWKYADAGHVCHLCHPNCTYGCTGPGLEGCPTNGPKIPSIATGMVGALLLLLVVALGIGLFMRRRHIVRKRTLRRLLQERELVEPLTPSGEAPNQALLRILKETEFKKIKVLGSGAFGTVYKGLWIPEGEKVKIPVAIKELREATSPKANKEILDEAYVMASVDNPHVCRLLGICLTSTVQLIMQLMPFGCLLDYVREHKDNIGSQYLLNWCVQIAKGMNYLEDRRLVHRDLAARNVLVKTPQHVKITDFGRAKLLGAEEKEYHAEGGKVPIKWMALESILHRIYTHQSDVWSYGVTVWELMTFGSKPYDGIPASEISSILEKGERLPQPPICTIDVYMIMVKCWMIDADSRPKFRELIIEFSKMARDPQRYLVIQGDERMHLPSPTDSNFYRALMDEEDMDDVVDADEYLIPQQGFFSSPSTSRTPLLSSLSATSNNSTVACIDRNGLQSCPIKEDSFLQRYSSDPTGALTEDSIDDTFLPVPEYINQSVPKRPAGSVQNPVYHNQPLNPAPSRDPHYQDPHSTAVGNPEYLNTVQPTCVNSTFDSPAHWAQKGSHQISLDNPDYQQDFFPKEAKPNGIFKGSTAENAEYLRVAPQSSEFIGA
How it was run: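 NCI-H1975 cells, 30,000/well, serum-starved overnight, then treated 1 hour at 37° C with serially diluted compounds in serum-free medium (0.5% DMSO). Lysates captured on anti-phospho-EGFR plates overnight at 4° C, detected with SULFO-TAG anti-total EGFR by electrochemiluminescence. Inhibition vs untreated controls; EC50 from 4-parameter logistic fit.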

[3] = target: T2, EGFR T790M L858R (Homo sapiens, UniProt P00533, L858R/T790M); experiment: EGFR T790M L858R biochemical assay (Caliper mobility shift); settings: 5 μM ATP; apparent Ki (Morrison fit) converted by Cheng-Prusoff, Km of ATP 1.3 μM
T2 construct: purchased Life Technologies PV4879
T2 sequence (P00533 25-1210 T790M/L858R): as above
How it was run: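 Reactions run 30 minutes at room temperature (22 °C), stopped with 80 mM EDTA. Phosphorylated product and substrate separated electrophoretically and quantified by Caliper mobility shift.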

[4] = target: T3, EGFR del746-750 T790M (Homo sapiens, UniProt P00533, DEL746-750/T790M); experiment: EGFR del746-750 T790M biochemical assay (Caliper mobility shift); settings: 5 μM ATP; apparent Ki (Morrison fit) converted by Cheng-Prusoff, Km of ATP 2.1 μM; read-out: EGFR(T790M/d746-750) Ki
T3 construct: purchased Carna Biosciences 08-528
T3 sequence (P00533 with tags, fused parts or gaps DEL746-750/T790M limits assumed): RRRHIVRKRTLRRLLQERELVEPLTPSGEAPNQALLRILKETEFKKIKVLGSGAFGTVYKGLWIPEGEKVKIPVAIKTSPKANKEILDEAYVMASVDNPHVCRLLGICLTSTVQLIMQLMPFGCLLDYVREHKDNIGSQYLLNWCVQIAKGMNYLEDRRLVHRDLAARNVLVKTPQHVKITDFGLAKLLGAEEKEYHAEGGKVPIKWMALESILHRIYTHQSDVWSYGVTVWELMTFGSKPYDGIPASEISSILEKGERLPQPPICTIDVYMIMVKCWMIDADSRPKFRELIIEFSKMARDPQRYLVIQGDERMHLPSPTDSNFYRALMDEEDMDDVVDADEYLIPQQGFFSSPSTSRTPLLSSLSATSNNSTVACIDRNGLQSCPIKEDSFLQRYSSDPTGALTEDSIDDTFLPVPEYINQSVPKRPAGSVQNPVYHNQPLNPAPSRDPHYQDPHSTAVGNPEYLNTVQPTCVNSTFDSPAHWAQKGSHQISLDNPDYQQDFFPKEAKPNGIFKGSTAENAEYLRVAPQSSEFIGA
How it was run: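 Kinase reactions ran 30 min at room temperature (22 °C), then were stopped with 80 mM EDTA. Phosphorylated product and substrate were separated electrophoretically and quantified by Caliper mobility shift.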

SMILES | EC50 [1] [nM] | EC50 [2] [nM] | Ki [3] [nM] | Ki [4] [nM]
CC(C)n1nc(NC2CCS(=O)(=O)C2)c2cnc(Nc3ccnc(-c4cnn(S(=O)(=O)C5CC5)c4)n3)cc21 (centres unmarked) [Example 107, 3-((6-((2-(1-(Cyclopropylsulfonyl)-1H-pyrazol-4-yl)pyrimidin-4-yl)amino)-1-isopropyl-1H-pyrazolo[4,3-c]pyridin-3-yl)amino)tetrahydrothiophene 1,1-dioxide] | 1640 | 386 | 2 | 1.5
CC(Nc1nn(C(C)C)c2cc(Nc3ccnc(-c4cnn(S(=O)(=O)C5CC5)c4)n3)ncc12)C(N)=O (centres unmarked) [Example 109, 2-(6-(2-(1-(Cyclopropylsulfonyl)-1H-pyrazol-4-yl)pyrimidin-4-ylamino)-1-isopropyl-1H-pyrazolo[4,3-c]pyridin-3-ylamino)propanamide] | 4620 | 788 | 1.8 | 1.3
CC(C)n1nc(N2CC[S+]([O-])CC2)c2cnc(Nc3ccnc(-c4cnn(S(=O)(=O)C5CC5)c4)n3)cc21 [Example 110, 4-(6-((2-(1-(Cyclopropylsulfonyl)-1H-pyrazol-4-yl)pyrimidin-4-yl)amino)-1-isopropyl-1H-pyrazolo[4,3-c]pyridin-3-yl)thiomorpholine 1-oxide] | 835 | 162 | 1.7 | 1.1
CC(C)n1nc(N2CCS(=N)(=O)CC2)c2cnc(Nc3ccnc(-c4cnn(S(=O)(=O)C5CC5)c4)n3)cc21 [Example 111, 4-(6-((2-(1-(Cyclopropylsulfonyl)-1H-pyrazol-4-yl)pyrimidin-4-yl)amino)-1-isopropyl-1H-pyrazolo[4,3-c]pyridin-3-yl)-1-iminothiomorpholine 1-oxide] | 949 | 560 | 1.7 | 1
CC(C)n1nc(N2CCC3(CCNC3=O)C2)c2cnc(Nc3ccnc(-c4cnn(S(=O)(=O)C5CC5)c4)n3)cc21 (centres unmarked) [Example 112, 7-(6-((2-(1-(Cyclopropylsulfonyl)-1H-pyrazol-4-yl)pyrimidin-4-yl)amino)-1-isopropyl-1H-pyrazolo[4,3-c]pyridin-3-yl)-2,7-diazaspiro[4.4]nonan-1-one] | 740 | 62.6 | 1.1 | 1
CC(C)n1nc(N2CCC3(CNC(=O)C3)C2)c2cnc(Nc3ccnc(-c4cnn(S(=O)(=O)C5CC5)c4)n3)cc21 (centres unmarked) [Example 115, 7-(6-((2-(1-(Cyclopropylsulfonyl)-1H-pyrazol-4-yl)pyrimidin-4-yl)amino)-1-isopropyl-1H-pyrazolo[4,3-c]pyridin-3-yl)-2,7-diazaspiro[4.4]nonan-3-one] | 1790 | 221 | 1.1 | 0.9
CC(C)n1nc(NC(=O)C(C)(C)O)c2cnc(Nc3ccnc(-c4cnn(S(=O)(=O)C5CC5)c4)n3)cc21 [Example 116, N-(6-(2-(1-(Cyclopropylsulfonyl)-1H-pyrazol-4-yl)pyrimidin-4-ylamino)-1-isopropyl-1H-pyrazolo[4,3-c]pyridin-3-yl)-2-hydroxy-2-methylpropanamide] | 2080 | 629 | 2.6 | 2
CCN1CCN(c2nn(C(C)C)c3cc(Nc4ccnc(-c5cnn(S(=O)(=O)C6CC6)c5)n4)ncc23)CC1 [Example 118, N-(2-(1-(Cyclopropylsulfonyl)-1H-pyrazol-4-yl)pyrimidin-4-yl)-3-(4-ethylpiperazin-1-yl)-1-isopropyl-1H-pyrazolo[4,3-c]pyridin-6-amine] | 1010 | 134 | 1.4 | 1.1
CC(C)n1nc(NCCS(C)(=N)=O)c2cnc(Nc3ccnc(-c4cnn(S(=O)(=O)C5CC5)c4)n3)cc21 (centres unmarked) [Example 125, N^6-(2-(1-(Cyclopropylsulfonyl)-1H-pyrazol-4-yl)pyrimidin-4-yl)-1-isopropyl-N^3-(2-(S-methylsulfonimidoyl)ethyl)-1H-pyrazolo[4,3-c]pyridine-3.6-diamine] | > 10000 | 2840 | 1.1 | 0.8
CC(C)n1nc(N2CC3(CN(CC(F)(F)F)C3)C2)c2cnc(Nc3ccnc(-c4cnn(S(=O)(=O)C5CC5)c4)n3)cc21 [Example 126, N-(2-(1-(Cyclopropylsulfonyl)-1H-pyrazol-4-yl)pyrimidin-4-yl)-1-isopropyl-3-(6-(2,2,2-trifluoroethyl)-2,6-diazaspiro[3.3]heptan-2-yl)-1H-pyrazolo[4,3-c]pyridin-6-amine] | 1140 | 80.1 | 5.3 | 4.6

Compounds with a lower EC50 [1], results first:

EC50 [1] [nM] | EC50 [2] [nM] | Ki [3] [nM] | Ki [4] [nM] | SMILES
232 | 57.8 | 2.1 | 1.6 | CC(C)n1nc(N2CCCC2=O)c2cnc(Nc3ccnc(-c4cnn(S(=O)(=O)C5CC5)c4)n3)cc21 [Example 106, 1-(6-(2-(1-(Cyclopropylsulfonyl)-1H-pyrazol-4-yl)pyrimidin-4-ylamino)-1-isopropyl-1H-pyrazolo[4,3-c]pyridin-3-yl)pyrrolidin-2-one]
377 | 113 | 1.9 | 1.7 | CC1CN(c2nn(C(C)C)c3cc(Nc4ccnc(-c5cnn(S(=O)(=O)C6CC6)c5)n4)ncc23)C(=O)N1 (centres unmarked) [Example 108, 1-(6-(2-(1-(Cyclopropylsulfonyl)-1H-pyrazol-4-yl)pyrimidin-4-ylamino)-1-isopropyl-1H-pyrazolo[4,3-c]pyridin-3-yl)-4-methylimidazolidin-2-one]
266 | 27.6 | 0.6 | 0.5 | CC(O)C1CN(c2nn(C(C)C)c3cc(Nc4ccnc(-c5cnn(S(=O)(=O)C6CC6)c5)n4)ncc23)C1 (centres unmarked) [Example 113, 1-(1-(6-(2-(1-(Cyclopropylsulfonyl)-1H-pyrazol-4-yl)pyrimidin-4-ylamino)-1-isopropyl-1H-pyrazolo[4,3-c]pyridin-3-yl)azetidin-3-yl)ethanol]
190 | 5.6 | 0.8 | 0.7 | CC(C)n1nc(N2CC[C@@H](O)C2)c2cnc(Nc3ccnc(-c4cnn(S(=O)(=O)C5CC5)c4)n3)cc21 [Example 114, (R)-1-(6-(2-(1-(Cyclopropylsulfonyl)-1H-pyrazol-4-yl)pyrimidin-4-ylamino)-1-isopropyl-1H-pyrazolo[4,3-c]pyridin-3-yl)pyrrolidin-3-ol]
432 | 54.9 | 1.3 | 1.1 | CC(C)n1nc(N2CC(N3CCOCC3)C2)c2cnc(Nc3ccnc(-c4cnn(S(=O)(=O)C5CC5)c4)n3)cc21 [Example 117, N-(2-(1-(Cyclopropylsulfonyl)-1H-pyrazol-4-yl)pyrimidin-4-yl)-1-isopropyl-3-(3-morpholinoazetidin-1-yl)-1H-pyrazolo[4,3-c]pyridin-6-amine]
431 | 32.8 | 1.4 | 1.3 | CC(C)n1nc(N2CCC3(COC3)C2)c2cnc(Nc3ccnc(-c4cnn(S(=O)(=O)C5CC5)c4)n3)cc21 [Example 120, N-(2-(1-(Cyclopropylsulfonyl)-1H-pyrazol-4-yl)pyrimidin-4-yl)-1-isopropyl-3-(2-oxa-6-azaspiro[3.4]octan-6-yl)-1H-pyrazolo[4,3-c]pyridin-6-amine]
184 | 19.6 | 0.8 | 0.7 | CC(C)n1nc(N2CC(CC#N)C2)c2cnc(Nc3ccnc(-c4cnn(S(=O)(=O)C5CC5)c4)n3)cc21 [Example 121, 2-(1-(6-(2-(1-(Cyclopropylsulfonyl)-1H-pyrazol-4-yl)pyrimidin-4-ylamino)-1-isopropyl-1H-pyrazolo[4,3-c]pyridin-3-yl)azetidin-3-yl)acetonitrile]
620 | 87.8 | 1.2 | 1 | CC(C)n1nc(N2CC(C)(CO)C2)c2cnc(Nc3ccnc(-c4cnn(S(=O)(=O)C5CC5)c4)n3)cc21 [Example 122, (1-(6-(2-(1-(Cyclopropylsulfonyl)-1H-pyrazol-4-yl)pyrimidin-4-ylamino)-1-isopropyl-1H-pyrazolo[4,3-c]pyridin-3-yl)-3-methylazetidin-3-yl)methanol]
201 | 4.4 | 0.6 | 0.6 | CC(C)n1nc(N2CC[C@H](O)C2)c2cnc(Nc3ccnc(-c4cnn(S(=O)(=O)C5CC5)c4)n3)cc21 [Example 123, (S)-1-(6-(2-(1-(Cyclopropylsulfonyl)-1H-pyrazol-4-yl)pyrimidin-4-ylamino)-1-isopropyl-1H-pyrazolo[4,3-c]pyridin-3-yl)pyrrolidin-3-ol]
660 | 248 | 0.7 | 0.7 | CC(C)n1nc(N2CC(O)(CO)C2)c2cnc(Nc3ccnc(-c4cnn(S(=O)(=O)C5CC5)c4)n3)cc21 [Example 124, 1-(6-(2-(1-(Cyclopropylsulfonyl)-1H-pyrazol-4-yl)pyrimidin-4-ylamino)-1-isopropyl-1H-pyrazolo[4,3-c]pyridin-3-yl)-3-(hydroxymethyl)azetidin-3-ol]
